Laboratory results published in PubChem BioAssay AID248 (DTP/NCI, 2004).
Several values for one entry are separate records, joined by “and”; a condition that tells them apart may be missing. Equal entries are not always repeated. Inconclusive results and toxic doses are left out. No stated cut-off is given here; in the data, active means T/C of 150% or more; inactive means T/C below 125%.

System: L1210 leukemia ip in BDF1 mice, survival T/C
Test: NCI In Vivo Anticancer Drug Screen. Data for tumor model L1210 Leukemia (intraperitoneal) in B6D2F1 (BDF1) mice
Conditions: endpoint: mean survival time, higher = longer survival
Method in brief: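 Survival endpoint. Drug-treated group vs vehicle group, expressed as T divided by C. Tumor passaged by transplantation.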

[1] = dose: 50.0 mg/kg/injection, schedule: Q01DX009 (ip), vehicle: Klucel (hydroxypropylcellulose) (HPC)
[2] = dose: 100.0 mg/kg/injection, schedule: Q01DX009 (ip), vehicle: Klucel (hydroxypropylcellulose) (HPC)
[3] = dose: 100.0 mg/kg/injection, schedule: Q04DX003 (ip), vehicle: Klucel (hydroxypropylcellulose) (HPC)
[4] = dose: 200.0 mg/kg/injection, schedule: Q01DX009 (ip), vehicle: Klucel (hydroxypropylcellulose) (HPC)
[5] = dose: 200.0 mg/kg/injection, schedule: Q04DX003 (ip), vehicle: Klucel (hydroxypropylcellulose) (HPC)
[6] = dose: 400.0 mg/kg/injection, schedule: Q04DX003 (ip), vehicle: Klucel (hydroxypropylcellulose) (HPC)
[7] = dose: 400.0 mg/kg/injection, schedule: Q01DX009 (ip), vehicle: Klucel (hydroxypropylcellulose) (HPC)
[8] = dose: 100.0 mg/kg/injection, schedule: Q01DX001 (ip), vehicle: saline
[9] = dose: 100.0 mg/kg/injection, schedule: Q04DX003 (ip), vehicle: saline
[10] = dose: 200.0 mg/kg/injection, schedule: Q01DX001 (ip), vehicle: saline
[11] = dose: 200.0 mg/kg/injection, schedule: Q04DX003 (ip), vehicle: saline
[12] = dose: 400.0 mg/kg/injection, schedule: Q01DX001 (ip), vehicle: saline
[13] = dose: 400.0 mg/kg/injection, schedule: Q04DX003 (ip), vehicle: saline
[14] = dose: 100.0 mg/kg/injection, schedule: Q04DX002 (ip), vehicle: Klucel (hydroxypropylcellulose) (HPC)
[15] = dose: 200.0 mg/kg/injection, schedule: Q04DX002 (ip), vehicle: Klucel (hydroxypropylcellulose) (HPC)
[16] = dose: 400.0 mg/kg/injection, schedule: Q04DX002 (ip), vehicle: Klucel (hydroxypropylcellulose) (HPC)
[17] = dose: 100.0 mg/kg/injection, schedule: Q01DX009 (ip), vehicle: saline
[18] = dose: 200.0 mg/kg/injection, schedule: Q01DX009 (ip), vehicle: saline
[19] = dose: 400.0 mg/kg/injection, schedule: Q01DX009 (ip), vehicle: saline

Measured: T/C

CC(=O)C1CC(CC(=O)O)C1(C)C (configuration not stated)
inactive: [1] 95 % of control | [2] 100 % of control | [3] 101 % of control | [4] 97 % of control | [5] 101 % of control | [6] 97 % of control

Nc1nc(=O)n(CCCOc2ccc(NC(=O)Nc3cccc(S(=O)(=O)F)c3)cc2)cc1-c1ccc(Cl)c(Cl)c1
inactive: dose: 50.0 mg/kg/injection, schedule: Q01DX001 (ip), vehicle: saline with Tween-80 98 % of control | dose: 100.0 mg/kg/injection, schedule: Q01DX001 (ip), vehicle: saline with Tween-80 98 % of control | dose: 200.0 mg/kg/injection, schedule: Q01DX001 (ip), vehicle: saline with Tween-80 95 % of control

Cc1ccccc1C(Br)C1=CC(C)(C)c2ccccc2C1=O (configuration not stated)
inactive: [2] 101 % of control | [3] 97 % of control | [4] 105 % of control | [5] 92 % of control | [7] 95 % of control | [6] 90 % of control

O=C(Nc1ccc(C(=O)O)cc1)Nc1cc([N+](=O)[O-])ccc1F
inactive: [3] 92 % of control | [5] 94 % of control | [6] 94 % of control

Cc1ccc(C(=O)C(F)(F)C(F)(F)C(F)(F)C(F)(F)C(F)(F)C(F)(F)C(F)(F)F)cc1
inactive: [8] 105 % of control | [9] 93 % of control | [10] 102 % of control | [11] 95 % of control | [12] 103 % of control | [13] 92 % of control

Cc1[nH]nc(-c2cccnc2)c1N=NN(C)C
inactive: dose: 75.0 mg/kg/injection, schedule: Q01DX001 (ip), vehicle: saline 110 % of control | dose: 150.0 mg/kg/injection, schedule: Q01DX001 (ip), vehicle: saline 106 % of control | dose: 300.0 mg/kg/injection, schedule: Q01DX001 (ip), vehicle: saline 111 % of control

Cc1ccc(CNC(=O)Nc2ccccc2)c(C)c1
inactive: dose: 100.0 mg/kg/injection, schedule: Q01DX009 (ip), vehicle: other 103 % of control | dose: 200.0 mg/kg/injection, schedule: Q01DX009 (ip), vehicle: other 91 % of control | dose: 400.0 mg/kg/injection, schedule: Q01DX009 (ip), vehicle: other 101 % of control

CCCOc1cccc(C(=N)N)c1
inactive: dose: 75.0 mg/kg/injection, schedule: Q01DX001 (ip), vehicle: Klucel (hydroxypropylcellulose) (HPC) 97 % of control | dose: 150.0 mg/kg/injection, schedule: Q01DX001 (ip), vehicle: Klucel (hydroxypropylcellulose) (HPC) 96 % of control | dose: 300.0 mg/kg/injection, schedule: Q01DX001 (ip), vehicle: Klucel (hydroxypropylcellulose) (HPC) 96 % of control

Cc1ccc([N+](=O)[O-])cc1NC(=O)Oc1cc(=O)oc2ccccc12
inactive: [14] 104 % of control | [15] 90 % of control | [16] 93 % of control

Cc1cc(NC(=O)Nc2cccc3ccccc23)no1
inactive: [2] 104 % of control | [14] 89 % of control | [4] 98 % of control | [15] 102 % of control | [7] 98 % of control | [16] 89 % of control

O=C(O)c1cscc1-c1cccc2ccccc12
inactive: dose: 100.0 mg/kg/injection, schedule: Q04DX003 (ip), vehicle: saline with Tween-80 91 % of control | dose: 200.0 mg/kg/injection, schedule: Q04DX003 (ip), vehicle: saline with Tween-80 98 % of control

C1CC2CCCN2C1
inactive: dose: 12.5 mg/kg/injection, schedule: Q01DX009 (ip), vehicle: saline 93 % of control | dose: 25.0 mg/kg/injection, schedule: Q01DX009 (ip), vehicle: saline 93 % of control | dose: 50.0 mg/kg/injection, schedule: Q01DX009 (ip), vehicle: saline 95 % of control

CN1CC(C)(C)C(O)c2ccccc21 (configuration not stated)
inactive: dose: 25.0 mg/kg/injection, schedule: Q04DX002 (ip), vehicle: other 100 % of control | dose: 50.0 mg/kg/injection, schedule: Q04DX002 (ip), vehicle: other 90 % of control | dose: 100.0 mg/kg/injection, schedule: Q04DX002 (ip), vehicle: other 107 % of control

CN(C)c1ccc(SSc2ccc(N(C)C)cc2)cc1
inactive: [8] 104 % of control | [14] 98 % of control | [10] 93 % of control | [15] 102 % of control | [12] 98 % of control | [16] 91 % of control

O=C(Nc1ccccc1C(F)(F)F)OCc1ccco1
inactive: dose: 100.0 mg/kg/injection, schedule: Q01DX001 (ip), vehicle: gum acacia 102 % of control and 91 % of control | dose: 100.0 mg/kg/injection, schedule: Q01DX009 (ip), vehicle: gum acacia 100 % of control | dose: 100.0 mg/kg/injection, schedule: Q04DX002 (ip), vehicle: gum acacia 95 % of control and 101 % of control | dose: 100.0 mg/kg/injection, schedule: Q04DX003 (ip), vehicle: gum acacia 94 % of control and 99 % of control | dose: 200.0 mg/kg/injection, schedule: Q01DX001 (ip), vehicle: gum acacia 98 % of control and 105 % of control | dose: 200.0 mg/kg/injection, schedule: Q01DX009 (ip), vehicle: gum acacia 97 % of control | dose: 200.0 mg/kg/injection, schedule: Q04DX002 (ip), vehicle: gum acacia 99 % of control and 108 % of control | dose: 200.0 mg/kg/injection, schedule: Q04DX003 (ip), vehicle: gum acacia 96 % of control and 92 % of control | dose: 400.0 mg/kg/injection, schedule: Q01DX001 (ip), vehicle: gum acacia 94 % of control and 95 % of control | dose: 400.0 mg/kg/injection, schedule: Q01DX009 (ip), vehicle: gum acacia 105 % of control | dose: 400.0 mg/kg/injection, schedule: Q04DX002 (ip), vehicle: gum acacia 99 % of control and 101 % of control | dose: 400.0 mg/kg/injection, schedule: Q04DX003 (ip), vehicle: gum acacia 108 % of control and 92 % of control

CC(C)N=C(N)C(N)=NC(C)C
inactive: [17] 97 % of control | [9] 98 % of control | [18] 92 % of control | [11] 104 % of control | [19] 96 % of control | [13] 96 % of control

COc1ccccc1N=Nc1c(O)n(-c2ccc(C)cc2)c(=S)n(-c2ccc(C)cc2)c1=O
inactive: dose: 50.0 mg/kg/injection, schedule: Q01DX001 (ip), vehicle: Klucel (hydroxypropylcellulose) (HPC) 86 % of control | dose: 100.0 mg/kg/injection, schedule: Q01DX001 (ip), vehicle: Klucel (hydroxypropylcellulose) (HPC) 89 % of control | dose: 200.0 mg/kg/injection, schedule: Q01DX001 (ip), vehicle: Klucel (hydroxypropylcellulose) (HPC) 102 % of control

CCOc1ccccc1C1N(C)CCCN1C
inactive: dose: 6.25 mg/kg/injection, schedule: Q04DX003 (ip), vehicle: saline with Tween-80 99 % of control | dose: 12.5 mg/kg/injection, schedule: Q04DX003 (ip), vehicle: saline with Tween-80 100 % of control | dose: 25.0 mg/kg/injection, schedule: Q04DX003 (ip), vehicle: saline with Tween-80 99 % of control

Cc1cc(C)cc(OC(=O)/C=C/C(=O)Oc2cc(C)cc(C)c2)c1
inactive: dose: 100.0 mg/kg/injection, schedule: Q01DX009 (ip), vehicle: saline with Tween-80 105 % of control | dose: 200.0 mg/kg/injection, schedule: Q01DX009 (ip), vehicle: saline with Tween-80 100 % of control | dose: 400.0 mg/kg/injection, schedule: Q01DX009 (ip), vehicle: saline with Tween-80 102 % of control

Nc1cc(N)c2cccnc2c1O
inactive: dose: 2.0 mg/kg/injection, schedule: Q01DX015 (ip), vehicle: saline 101 % of control | dose: 4.0 mg/kg/injection, schedule: Q01DX015 (ip), vehicle: saline 101 % of control

CN(C)C(N)=Nc1ccc(Cl)cc1
inactive: dose: 12.5 mg/kg/injection, schedule: Q01DX009 (ip), vehicle: Klucel (hydroxypropylcellulose) (HPC) 97 % of control | dose: 25.0 mg/kg/injection, schedule: Q01DX009 (ip), vehicle: Klucel (hydroxypropylcellulose) (HPC) 98 % of control | [1] 89 % of control

COC1(c2ccc(Cl)s2)OC1(C)C (configuration not stated)
inactive: [17] 100 % of control | [9] 100 % of control | [18] 96 % of control | [11] 105 % of control | [19] 105 % of control | [13] 96 % of control

Nc1ncncc1-c1ccccc1[N+](=O)[O-]
inactive: [1] 98 % of control | [2] 98 % of control | [4] 102 % of control
